According to US7129226B2, “Mimetic insect allatostatin analogs for insect control” (The United States of America as represented by the …, priority 1998, dated 2006):
Where two headings read alike, the source gives them in different places. Ends that are not written are not given here. Peptide text beside a SMILES is read from it. carboranyl propanoic acid = 2-o-carboranylpropanoic acid

Columns and labels:
[1] = tested on: corpora allata of the cockroach Diploptera punctata (JH biosynthesis); assay: In vitro radiochemical assay of JH biosynthesis/release by corpora allata; assay type: cell-based; conditions: for bioactivity (inhibition of JH biosynthesis): result in words
Method: Rates of JH release were determined by the in vitro radiochemical method of Feyereisen and Tobe (Anal. Biochem., 111:372–375, 1981) and as modified by Tobe and Clarke (Tobe and Clarke, Insect Biochem., 15:175–179, 1985). The incorporation of L[^14C—S-methyl]-methionine (50 μM, specific radioactivity 1.48–2.03 GBq/mmol from New England Nuclear or Amersham) into JH III at its penultimate step of biosynthesis by CA incubated in 50 μl TC 199 (GIBCO, 1.3 mM Ca^2+, 2% Ficoll, methionine-free) was used to quantify JH release. Animals were anaesthetized on ice prior to dissection. Corpora allata were dissected directly into non-radioactive medium (only animals with oviposited basal oocytes were used for assay). Samples were dried with nitrogen and resuspended in 10 μl 1N HCl. Radioactive medium was added and neutralized with 10 μl NaOH. Individual CA were transferred from non-radioactive medium to radioactive medium and were incubated for 3 h. The amount of inhibition was expressed as the percent reduction from the untreated rate: [1-(treated rate/untreated rate))] ×100%. Each value represents replicate incubations of a minimum of 8 tests.
D. punctata females mate almost immediately following emergence. Therefore, newly emerged, mated females were transferred each day from the stock culture to an incubator and kept at 27±1° C. The relative humidity was approximately 50% with a 12 hour light:dark cycle. Insects were reared on Purina Lab Chow and water. Mating was confirmed by the presence of a spermatophore. Basal oocyte length was also measured (day 5=1.44–1.68 mm). Only day 5 mated females were utilized for the degradation studies. Day 7 mated females (only with oviposited basal oocytes) were the source of corpora allata for analysis of JH biosynthesis.
Radiochemical assays were conducted as described in Example 1.

in vitro [2] = assay type: in vitro ADME, Diploptera punctata
Method: (§1) Day 5 mated female D. punctata were anaesthetized on ice before dissection. Following dissection, tissues were stored in saline (0.9% NaCl pH 7.0–7.2 or cockroach saline; […] at pH 7.2–7.4) on ice. Tissues were cleaned of fat body and trachea and guts were cleaned. Midgut peritrophic membrane was removed, midguts cut open, the guts gently pulled through forceps and then washed 3×. Tissues were stored at −70° C. until sufficient material was collected.
(§2) Hemolymph was collected following the method of King and Tobe (Insect Biochem., 18:793–805, 1988). Hemolymph was diluted 100× with saline.
(§3) Crude membrane preparation or hemolymph was aliquoted into 1.5 ml microcentrifuge tubes for in vitro assay. Dip-AST5 (6 μM) or analog was added to each assay tube from a 1 mM stock solution. Total incubation volume was 500 μl. Tubes were placed on a shaker at room temp for the duration of the incubation time. Incubations were terminated by the addition of 200 μl 30% aqueous TFA. Samples were centrifuged at 10,000 g and the supernatant was applied to a C18 solid phase extraction column. None of the potential, synthetic Dip-AST5 metabolites are lost (unpublished data). The 17–40% acetonitrile fraction was concentrated with a Speed-Vac apparatus and held at −70° C. until HPLC analysis. Samples is were diluted in 0.5 ml 0.1% aqueous TFA, filtered through 0.2 μm micro-spin filters and injected onto the HPLC column. Separation of allatostatins and their catabolites, or analogs and their catabolites, was performed using reversed-phase HPLC (see HPLC methods). When available, retention times of synthetic metabolites were used as a reference to identify endogenous metabolites. Dip-AST5 fragments were synthesized by the Institute for Biosciences and Technology, Dept. of Entomology, Texas A & M University. Dip-ASTs were synthesized by the Core Facility of Insect Biotech Canada (Department of Biochemistry, Queen's University) or obtained from Sigma Chemical Co., St. Louis, Mo. 63178 USA. The identity of fragments resulting from peptidase degradation was also confirmed by FAB mass spectrometry by adding samples in a glycerol medium (1.5 μl) onto a copper probe, followed by bombardment with 8 kV Xe atoms on a Kratos MS-50 mass spectrometer. (Kratos, Manchester, UK).
(§4) Degradation experiments were analyzed by RP-HPLC using a 220×4.6 mm Brownlee Phenyl column (5 μm) on a Spectra-Physics chromatography system with a Spectra-Physics Chromjet integrator and a Spectra-Physics 8490 detector. Following a 5 min wash with 1.5% acetonitrile in 0.1 aqueous TFA, a linear gradient of acetonitrile (15–37.5% in 50 min; 37.5–65% in 5 min) at a flow rate of 0.5 ml/min was used to elute peptides and analogs. […]

midgut peptidases = assay: in vitro; assay type: in vitro ADME, Diploptera punctata; conditions: female, tissue homogenate
Method: as §1
(§5) Tissues were pooled and homogenized in saline on ice in microcentrifuge tubes (2.5 ml) for 2 min with an Omni hand held homogenizer. Homogenates were centrifuged at 1000 g for ten min at 4° C. to remove cellular debris. The pellet was discarded. Supernatant was subsequently centrifuged at 30,000 g for 30 min. Pellet (crude membrane preparation) was washed three times in homogenization buffer and resuspended in saline using the Omni homogenizer.
as §3
(§6) Degradation experiments were analyzed by RP-HPLC using a 220×4.6 mm Brownlee Phenyl column (5 μm) on a Spectra-Physics chromatography system with a Spectra-Physics Chromjet integrator and a Spectra-Physics 8490 detector. Following a 5 min wash with 1.5% acetonitrile in 0.1 aqueous TFA, a linear gradient of acetonitrile (15–37.5% in 50 min; 37.5–65% in 5 min) at a flow rate of 0.5 ml/min was used to elute peptides and analogs. Fractions (0.5 ml) were collected each minute during the gradient run.

in vitro [3] = assay type: in vitro ADME, Diploptera punctata; remark: listed apart in the source
Method: as §1, §5, §3, §6

brain peptidases = assay: in vitro; assay type: in vitro ADME, Diploptera punctata; conditions: female, tissue homogenate; for half-life at 6 μM: Diploptera punctata
Method: as §1, §5, §3, §6

hemolymph peptidases = assay: in vitro; assay type: in vitro ADME, Diploptera punctata; conditions: female, Diploptera punctata
Method: as §1, §2, §3, §4

[4] = Penetration of analog through isolated cockroach cuticle (RPLC of well contents); assay type: in vitro ADME, American cockroach
Method: Adults of the American cockroach were obtained from. colonies at our facility (CMAVE). Animals, anesthetized by submersion in H2O for 30 min, were pinned ventral side up in a wax dissecting dish flooded with water. Lateral incisions along the margins of the abdominal sternites were made between segments 1–7. The epidermal layers including the cuticle and epidermal cells were lifted up and associated tissue was cleared using forceps prior to removal. The epidermal tissue was placed cell side up on a microscope slide and the cells were scraped from the cuticle using a glass cover slip. To further clean the cuticle of cellular debris the tissue was floated, cell side down, in a beaker containing H2O and subjected to sonication in a water bath at 30° C. for 30 min. The cuticle strips were then washed 3× in clean water. Pieces of cuticle, ca. 0.4 cm^2, composed of individual sternites without associated intersegmental membranes were then dissected away from remaining cuticle.
Incubation of cuticle was accomplished using the wells of ELISA plates (Corning, 96 well Easy Wash). […]
Dried samples were reconstituted in 35% acetonitrile (MeCN) (Burdick and Jackson) prior to analysis. […] Data acquired from analyses were reduced and analyzed using NCSS 97 software using regression analysis and T-Tests.

[5] = 3 h in vitro radiochemical assay, single 7-day mated CA, read-out: IC50, half-maximal inhibition of JH release

## DRLYSFGL-NH2 [Dip-AST5, reference compound]
[1]; [5]
  IC50: 3.12 nM
[1]; read-out: IC50
  IC50: 3.1 nM
In vitro [2]; female, Diploptera punctata
  half-life at 6 μM: 2.55 h

## CC(C)C[C@H](NC(=O)C1(NC(=O)[C@H](Cc2ccccc2)NC(=O)[C@H](CC(N)=O)NC(=O)[C@H](Cc2ccc(O)cc2)NC(=O)[C@@H]2CCCN2C(=O)[C@H](CCCNC(=N)N)NC(=O)[C@H](C)N)CC1)C(N)=O [analog 397-2, Ala-Arg-Pro-Tyr-Asn-Phe-Cpa-Leu-NH2] (HELM PEPTIDE1{A.R.P.Y.N.F.[O=C(C1(N[*:1])CC1)[*:2]].L.[am]}$$$$V2.0; N-terminus assumed)
[1]; [5]
  IC50: 172 nM
[1]
  bioactivity (inhibition of JH biosynthesis): significant bioactivity
Midgut peptidases; Diploptera punctata
  half-life at 6 μM: 0.347 h
In vitro [3]
  resistance to cleavage by membrane-bound enzymes: little resistance
Brain peptidases
  half-life at 6 μM: 1.01 h

## CC(C)C[C@H](NC(=O)C1(NC(=O)[C@H](Cc2ccccc2)NC(=O)[C@H](CC(N)=O)NC(=O)CCc2ccccc2)CC1)C(N)=O [AST(b)φ2, Hca-Asn-Phe-Cpa-Leu-NH2] (HELM PEPTIDE1{[O=C(CCc1ccccc1)[*:2]].N.F.[O=C(C1(N[*:1])CC1)[*:2]].L.[am]}$$$$V2.0)
[1]; [5]
  IC50: 1550 nM
[1]
  bioactivity (inhibition of JH biosynthesis): significant biological activity
In vitro [3]
  longer half-life than the native neuropeptide Dip-AST5: 600 fold
  resistance to midgut peptidases: completely resistant
In vitro [3]; tissue homogenate
  Half-life, Midgut: ∞
Brain peptidases
  half-life at 6 μM: 180 h
In vitro [2]
  longer half-life than the native neuropeptide Dip-AST5: 8 fold
  resistance to degradation by enzymes: extreme resistance
Hemolymph peptidases
  half-life at 6 μM: 20.2 h

## CC(C)C[C@H](NC(=O)CNC(=O)[C@H](Cc1ccccc1)NC(=O)[C@H](CC(N)=O)NC(=O)[C@H](Cc1ccc(O)cc1)NC(=O)CC1c2ccccc2-c2ccccc21)C(N)=O [analog 525] (HELM PEPTIDE1{[O=C(CC1c2ccccc2-c2ccccc21)[*:2]].Y.N.F.G.L.[am]}$$$$V2.0)
[4]; 0.5 nmol applied to cuticle, rate stabilized after six hours
  release rate through the cuticle: about 1.5 pmol/h
[4]; cockroach cuticle, result in words
  penetration of the cuticle: penetrated the cuticle effectively

## CC(C)C[C@H](NC(=O)CNC(=O)C1(NC(=O)[C@H](CC(N)=O)NC(=O)[C@H](Cc2ccc(O)cc2)NC(=O)[C@@H]2CCCN2C(=O)[C@H](CCCNC(=N)N)NC(=O)[C@H](C)N)Cc2ccccc2C1)C(N)=O [analog 396-1, Ala-Arg-Pro-Tyr-Asn-Aic-Gly-Leu-NH2] (HELM PEPTIDE1{A.R.P.Y.N.[O=C(C1(N[*:1])Cc2ccccc2C1)[*:2]].G.L.[am]}$$$$V2.0; N-terminus assumed)
[1]; read-out: IC50
  IC50: 2.12 nM
[1]
  bioactivity (inhibition of JH biosynthesis): significant bioactivity
Midgut peptidases
  half-life: 0.377 h
In vitro [3]
  resistance to cleavage by membrane-bound enzymes: little resistance
Brain peptidases
  half-life: 0.287 h

## carboranyl propanoic acid-Ser-Phe-Gly-Leu-NH2 ({carboranyl propanoic acid}-SFGL-NH2)
[1]; in another assay, read-out: activity (ED50)
  EC50: 0.644 nM
